{
  "source": "patent US20100204129A1",
  "about": "“USE OF A PEPTIDE AS A THERAPEUTIC AGENT” (priority 2008, published 2010)",
  "key": {"A549 cells [1]": {"system": "A549 cells", "assay": "Apoptosis induction assay (Annexin-5)", "format": "cell-based, human", "details": "apoptosis induction in A549 cells, 24 hours exposure", "excerpt": "Human A549 cells (carcinomic human alveolar basal epithelial cells) were utilized in the experiments employing the Annexin-5 apoptosis assay. Annexin-5 is a member of a highly conserved protein family that binds acidic phospholipids in a calcium-dependent manner. […] Phosphatidylserine is translocated from the inner side of the plasma membrane to the outer layer when cells undergo death by apoptosis or cell necrosis and serves as a signal by which cell destined for death are recognized by phagocytes. Test peptide—[…]—were exposed for 24 hours to the A549 cells before they were analyzed for signs of apoptosis."}, "TNF alpha": {"system": "TNF alpha", "assay": "TNF alpha production assay (LPS-stimulated macrophages, ELISA)", "format": "cell-based, human", "details": "macrophages from PBMC, peptide 10 micrograms per ml, lipopolysaccharide 200 ng/ml, overnight", "method": "Human Peripheral Blood Mononuclear Cells (PBMC) were obtained from normal human donors. The macrophages were prepared by adherence of PBMC to the plastic wells of the plates. After 8 days in culture in the presence of recombinant human macrophage-colony stimulating factor at 2 ng/ml, differentiated macrophages were preincubated with test peptide—10 micrograms per ml—for 30 min, followed by in-well stimulation by the addition of lipopolysaccharide at a final concentration of 200 ng/ml. Not stimulated macrophages served as negative background control.\nAfter overnight incubation, supernatants from the control and LPS-stimulated cultures were harvested and assayed for TNF alpha production employing a TNF alpha specific ELISA."}, "[2]": {"system": "hepatitis B virus (HBV) ayw strain", "assay": "HBV assay, secreted HBV DNA by TaqMan PCR in HepG2-2.2.15", "details": "peptide 10 micrograms per ml; six days; HBV DNA in supernatant"}, "A549 cells [3]": {"system": "A549 cells", "assay": "Apoptosis prevention assay (C2 ceramide, Annexin-5)", "format": "cell-based, human", "details": "A549 cells pretreated 30 min with peptide 10 micrograms per ml, then C2 ceramide", "excerpt": "Human A549 cells (carcinomic human alveolar basal epithelial cells) were utilized in the experiments employing the Annexin-5 apoptosis assay. Annexin-5 is a member of a highly conserved protein family that binds acidic phospholipids in a calcium-dependent manner. […] Phosphatidylserine is translocated from the inner side of the plasma membrane to the outer layer when cells undergo death by apoptosis or cell necrosis and serves as a signal by which cell destined for death are recognized by phagocytes. A549 cells were pretreated for 30 min with test peptide—10 micrograms per ml—followed by the exposure to C2 ceramide. Ceramide mediates cell apoptosis through the activation of the mitogen activating protein kinase (MAPK) and the stress activated kinase (JNK/SAPK). C2 ceramide is a synthetic, membrane soluble analog of ceramide."}, "A549 cells [4]": {"system": "A549 cells", "assay": "Propidium iodide cell cycle assay", "format": "cell-based, human", "details": "peptide 10 micrograms per ml, 24 hours, FACS", "excerpt": "Human A549 cells (carcinomic human alveolar basal epithelial cells) were utilized in the experiments employing the Propidium iodide cell cycle assay. The eukaryotic cell cycle is a series of events that take place in a cell leading to its replication. The regulation of the cell cycle involves steps crucial to the cell, including detecting and repairing genetic damage, and provision of various checks to prevent uncontrolled cell division. The molecular events that control the cell cycle are ordered and directional; that is, each process occurs in a sequential fashion. The cell cycle consists of four distinct phases: G1 phase, S phase, G2 phase (collectively known as interphase) and M phase. M phase is itself composed of two tightly coupled processes: mitosis, in which the cell's chromosomes are divided between the two daughter cells, and cytokinesis, in which the cell's cytoplasm divides forming distinct cells. Activation of each phase is dependent on the proper progression and completion of the previous one. Cells that have temporarily or reversibly stopped dividing are said to have entered a state of quiescence called Go phase. The relatively brief M phase consists of nuclear division and cytoplasmic division. The first phase within interphase, from the end of the previous M phase till the beginning of DNA synthesis is called G1 (G indicating gap or growth). During this phase the biosynthetic activities of the cell resume at a high rate. This phase is marked by synthesis of various enzymes that are required in S phase, mainly those needed for DNA replication. The ensuing S phase starts when DNA synthesis commences; when it is complete, all of the chromosomes have been replicated. The cell then enters the G2 phase, which lasts until the cell enters mitosis. Significant protein synthesis occurs during this phase, mainly involving the production of microtubules, which are required during the process of mitosis. […]\nPropidium iodide is an intercalating agent and a fluorescent molecule that can be used to stain DNA. […] After incubation for 40 min at 37° C., cells were analyzed in the FACS."}},
  "note": "Non-standard residues stand in square brackets, D forms with d. Residues, ends and D or L forms follow the SMILES beside them.",
  "data": [
    {"smiles": "CC(C)C[C@H](NC(=O)[C@H](CC(C)C)NC(=O)[C@@H](Cc1c[nH]c2ccccc12)NC(=O)[C@H](Cc1ccccc1)NC(=O)[C@@H](Cc1c[nH]c2ccccc12)NC(=O)[C@H](CCC(N)=O)NC(=O)[C@H](CCC(N)=O)NC(=O)[C@@H]1CCCN1C(=O)[C@H](CCCCN)NC(=O)[C@@H]1CCCN1C(=O)[C@@H](CCCNC(=N)N)NC(=O)[C@@H]1CCCN1C(=O)CNC(=O)[C@H](CC(C)C)NC(=O)[C@H](CC(C)C)NC(=O)[C@H](Cc1ccc(O)cc1)NC(=O)CNC(=O)[C@H](C)NC(=O)[C@H](CO)NC(=O)[C@H](CC(N)=O)NC(=O)[C@H](CC(C)C)NC(=O)[C@@H](NC(=O)[C@H](Cc1c[nH]c2ccccc12)NC(=O)CN)[C@@H](C)O)C(N)=O", "note": "[Spantide-I, Gly-Trp-Thr-Leu-Asn-Ser-Ala-Gly-Tyr-Leu-Leu-Gly-Pro-D-Arg-Pro-Lys-Pro-Gln-Gln-D-Trp-Phe-D-Trp-Leu-Leu-NH2] (H-GWTLNSAGYLLGP[dR]PKPQQ[dW]F[dW]LL-NH2)", "values": [
      {"measurement": "% of induction", "setting": "A549 cells [1]", "result": 1.4, "unit": "%"},
      {"measurement": "% of LPS induction", "setting": "TNF alpha", "result": 101.4, "unit": "%"},
      {"measurement": "% inhibition of HBV replication in HEP G2 cells", "setting": "[2]", "result": 14.1, "unit": "%"},
      {"measurement": "% prevention of ceramide induced apoptosis", "setting": "A549 cells [3]", "result": "−20.5", "unit": "%"},
      {"measurement": "Cell cycle analysis G0/G1", "setting": "A549 cells [4]", "result": 61.6},
      {"measurement": "Cell cycle analysis G2/M", "setting": "A549 cells [4]", "result": 7.7},
      {"measurement": "Cell cycle analysis S", "setting": "A549 cells [4]", "result": 30.7}
    ]}
  ]
}
